{"source": "ChEMBL document CHEMBL4261634", "about": "“Design and optimization of 2,3-dihydrobenzo[b][1,4]dioxine propanoic acids as novel GPR40 agonists with improved pharmacokinetic and safety profiles” (Bioorg Med Chem, 2018)", "target": "T1, Solute carrier organic anion transporter family member 1B1 (Homo sapiens, UniProt Q9Y6L6)", "T1 sequence (Q9Y6L6 whole entry)": "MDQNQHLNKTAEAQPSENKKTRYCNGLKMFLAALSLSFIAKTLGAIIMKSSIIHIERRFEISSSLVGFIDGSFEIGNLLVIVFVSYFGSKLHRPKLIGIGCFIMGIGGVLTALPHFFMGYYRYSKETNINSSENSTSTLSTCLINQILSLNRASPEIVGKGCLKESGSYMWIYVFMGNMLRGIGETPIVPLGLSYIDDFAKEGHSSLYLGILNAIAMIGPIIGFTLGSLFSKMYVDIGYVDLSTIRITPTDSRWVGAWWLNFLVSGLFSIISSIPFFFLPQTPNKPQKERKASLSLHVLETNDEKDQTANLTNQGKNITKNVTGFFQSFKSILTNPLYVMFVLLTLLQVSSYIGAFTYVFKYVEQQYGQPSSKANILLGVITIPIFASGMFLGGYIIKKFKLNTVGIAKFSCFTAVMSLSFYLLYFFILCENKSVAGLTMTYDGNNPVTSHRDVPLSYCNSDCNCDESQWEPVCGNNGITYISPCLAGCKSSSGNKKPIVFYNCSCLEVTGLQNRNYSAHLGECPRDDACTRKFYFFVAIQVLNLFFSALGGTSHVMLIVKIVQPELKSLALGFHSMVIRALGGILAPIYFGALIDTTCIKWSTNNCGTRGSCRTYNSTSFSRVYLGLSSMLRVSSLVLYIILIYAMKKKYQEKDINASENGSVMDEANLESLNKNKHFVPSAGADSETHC", "test": "Inhibition of human OATP1BA", "note": "pIC50: −log10 of the molar value."}
{"smiles": "CC#C[C@@H](CC(=O)O)c1ccc(OC[C@H]2COc3ccc(Cl)cc3O2)cc1", "values": [{"measurement": "pIC50", "value": "< 4.00"}]}
